As usually defined, the inhibition is the relative decrease from the control value, in per cent. Broadly, the IC50 is the concentration at which inhibition is half-maximal. Low values mean higher potency, high ones lower potency.

SMILES strings stand for the structures. Where a chain is given by its changes, count along the chain named. Entries after “also recorded” stand apart in the source; their conditions may differ. Like-named read-outs stand apart in the source and are kept apart here.

For one series, the target named is T1, OCT1*12 (Ser29Leu) (Homo sapiens, UniProt O15245, L160F/S29L).
T1 construct: expressed in transfected cells; host or cells: HEK293 T-REx (Flp-In)
T1 sequence (O15245 1-554 S29L/L160F): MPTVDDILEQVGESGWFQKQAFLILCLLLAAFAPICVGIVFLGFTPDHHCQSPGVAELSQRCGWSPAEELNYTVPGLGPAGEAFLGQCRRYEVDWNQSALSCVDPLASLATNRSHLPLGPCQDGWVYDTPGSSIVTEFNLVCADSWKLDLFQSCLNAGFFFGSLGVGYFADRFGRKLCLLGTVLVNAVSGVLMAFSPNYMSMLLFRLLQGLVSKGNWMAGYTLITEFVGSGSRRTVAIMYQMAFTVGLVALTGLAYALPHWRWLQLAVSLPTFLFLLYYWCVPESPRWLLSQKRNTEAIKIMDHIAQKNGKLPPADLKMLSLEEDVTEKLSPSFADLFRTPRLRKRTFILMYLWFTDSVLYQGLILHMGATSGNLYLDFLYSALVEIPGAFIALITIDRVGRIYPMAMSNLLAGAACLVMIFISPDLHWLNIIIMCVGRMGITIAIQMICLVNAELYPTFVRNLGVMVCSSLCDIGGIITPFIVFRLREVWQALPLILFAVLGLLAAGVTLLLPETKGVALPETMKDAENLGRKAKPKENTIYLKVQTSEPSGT
As to the kind of experiment: Ranitidine uptake in HEK293 cells overexpressing OCT1*12. The series is classed as in vitro ADME. Particulars: 1 μM and 10 μM ranitidine, 2 min.

Another series deals with T2, OCT1*1 (Homo sapiens, UniProt O15245, L160F).
T2 construct: expressed in transfected cells; host or cells: HEK293 T-REx (Flp-In)
T2 sequence (O15245 1-554 L160F): T1 sequence (O15245 1-554 S29L/L160F) with L29S
Put plainly: Inhibition by ranitidine of OCT1-mediated substrate uptake, reference allele, HEK293 cells. The series is classed as cell-based. The settings on record: for inhibition at 2 min: human, HEK293 cells overexpressing OCT1*1 (reference allele); for IC50: OCT1*1, 2 min, HEK293.

Series [1] concerns the target T3, OCT1*1D (Pro341Leu/Met408Val) (Homo sapiens, UniProt O15245, L160F/M408V/P341L).
T3 sequence (O15245 1-554 L160F/P341L/M408V): T1 sequence (O15245 1-554 S29L/L160F) with L29S, P341L, M408V
Particulars: 1 and 10 μM ranitidine, 2 min.
Excerpt: (§1) HEK293 or CHO cells overexpressing the human OCT1 alleles *1A (characterized by the amino acid substitution Met408Val), *1B, *1C (Phe160Leu), *1D (Pro341Leu/Met408Val), *2 (Met420del), *3 (Arg61Cys), *4 (Gly401Ser), *5 (Gly465Arg/Met420del), *6 (Cys88Arg/Met420del), *7 (Ser14Phe), *8A (Arg488Met), *8B (Arg488Met/Met408Val), *9 (Pro117Leu), *10 (Ser189Leu), *11 (Ile449Thr), *12 (Ser29Leu), or *13 (Thr245Met), the human OCT2 reference and variant alleles (Ala270Ser), human OCT3, and the control cells (transfected with the empty pcDNA5 vector) were generated by targeted chromosomal integration using the Flp-In™ System (Life Technologies, Darmstadt, Germany).
(§2) Six hundred thousand HEK293 or CHO cells were plated per well in 12-well plates (pre-coated with poly-D-lysine) and were grown for 48 hours to reach confluence. Cells were kept at 37°C and 5% CO2 in DMEM (HEK293) or RPMI (CHO), supplemented with 10% FCS, 100 U/ml penicillin, and 100 μg/ml streptomycin. Uptake experiments were performed at pH 7.4 using HBSS supplemented with 10 mM HEPES buffer (herein referred to as HBSS+). […]
(§3) For all transport measurements, the intracellular amount of substrate was normalized to the total amount of protein of the sample as measured using the bicinchoninic acid assay [49].
(§4) For quantification of intracellular substrates, the cell debris were removed by centrifugation at 17,000 x g for 10 min. […]

In another series the target is T4, OCT1*2 (Met420del) (Homo sapiens, UniProt O15245, DEL420-420/L160F).
T4 sequence (O15245 with tags, fused parts or gaps L160F/DEL420-420): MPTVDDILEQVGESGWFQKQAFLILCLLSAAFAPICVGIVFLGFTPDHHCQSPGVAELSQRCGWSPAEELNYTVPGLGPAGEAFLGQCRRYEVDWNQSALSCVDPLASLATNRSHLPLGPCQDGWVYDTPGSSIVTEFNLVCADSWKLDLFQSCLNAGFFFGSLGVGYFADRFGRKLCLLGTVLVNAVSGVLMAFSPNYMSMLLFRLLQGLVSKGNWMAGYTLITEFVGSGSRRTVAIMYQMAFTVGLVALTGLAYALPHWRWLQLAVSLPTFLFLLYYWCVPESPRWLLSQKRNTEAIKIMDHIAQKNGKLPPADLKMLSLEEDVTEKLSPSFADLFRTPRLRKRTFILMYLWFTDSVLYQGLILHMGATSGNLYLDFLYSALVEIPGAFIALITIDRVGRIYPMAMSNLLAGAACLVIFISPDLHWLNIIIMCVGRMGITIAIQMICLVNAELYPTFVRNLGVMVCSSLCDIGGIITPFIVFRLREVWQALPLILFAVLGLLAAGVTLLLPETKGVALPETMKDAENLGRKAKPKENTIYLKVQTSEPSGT

Excerpt for OCT1*12 (Ser29Leu): as §1, §2, §3, §4
Excerpt for OCT1*2 (Met420del): as §1, §2, §3, §4

For `CNC(=C[N+](=O)[O-])NCCSCc1ccc(CN(C)C)o1` [ranitidine, Ranitidine], on OCT1*12 (Ser29Leu), the ranitidine transport activity entry is listed as “completely lacked ranitidine uptake; also recorded: complete lack of ranitidine transport activity”. The “induction of morphine uptake” value on OCT1*1 (at Cmax of ranitidine, reference allele only, not in OCT1*2) is 41%. The inhibition at 2 min at OCT1*1 (pH 7.4, probe metformin (100 μM), read-out: inhibition of metformin uptake) was 50%; on OCT1*1 (pH 7.4, high concentrations expected in the gastrointestinal tract, all substrates tested, reference allele, read-out: inhibition of substrate uptake) it was > 70%. Moreover, the IC50 worked out at 81.9 µM on OCT1*1 (substrate 0.1 μM MPP+), 45.5 ± 5.49 µM against OCT1*1 (substrate 0.1 μM morphine), 337 µM on OCT1*1 (substrate 1 μM ASP+) and 20.9 µM against OCT1*1 (substrate 100 μM metformin). The “uptake of ranitidine compared to the reference allele” value in series [1] is “no significant difference”. The “decrease of vmax compared to the reference allele” value on OCT1*2 (Met420del) (OCT1*2) is “more than 50%”. Also, on OCT1*2 (Met420del) (OCT1*2 Met420del, HEK293, 10-600 μM ranitidine, 2 min), the “Vmax (±SEM)” value is recorded as 402.04 (±51.24) pmol x min^-1 x mg protein^-1.

Values taken from PMC5728534 (PLoS ONE, 2017).
